The nature of data set [1]: Stability in cell culture medium (DMEM) at 37 °C by 1H NMR. The following applies: DMEM-d (6.6 % CD3OD). It counts as physicochemical. On the procedure: Next, the stability of the diiron compounds in a cell culture medium (DMEM) solution at 37 °C, over a shorter time range (24 h), was assessed by ^1H NMR.
(§1) Stability in water (D2O) and cell culture medium. The procedures are described in the Supporting Information, and data are collected in Table S3.
(§2) Table S3. Stability of diiron complexes in D2O, D2O/CD3OD, DMSO-d6/D2O and cell culture medium (DMEM-
(§3) d/CD3OD) solution at 37 °C calculated by 1H NMR (Me2SO2 internal standard).
(§4) % starting material (72 h) % starting material
(§5) Compound D O D O/CD OD DMSO-d /D O DMEM-d
(§6) [a] X = I for the stability in D 2O, X = CF3SO3 for the stability in cell culture medium. [b] Stability in D 2O and […]

The nature of data set [2]: Stability in D2O, D2O/CD3OD and DMSO-d6/D2O at 37 °C by 1H NMR. It counts as physicochemical. On the procedure: A detailed study on the behaviour of a selection of the diiron complexes in aqueous media was undertaken. Experimental procedures are provided in the Experimental Section and in the Supporting Information, with data collected in Tables 3, S3 and S4. […] The octanol/water partition coefficients (log P ow) were measured by a UV/Vis method and fall in between 0 and −1, reflecting an amphiphilic or slightly hydrophilic character. […] Conversely, those complexes with aromatic groups (i. e., 1H‐indol‐6‐yl, 2‐naphthyl and bis‐benzyl in [2A]^+, [3G]^+, [4G]^+ and [5H]^+) are less soluble in water and display increased affinity for n‐octanol (log P ow≈0). The diiron compounds are inert in aqueous solution at room temperature, and undergo a slow degradation at 37 °C. Under such conditions, a variable amount (50 to 86 %; Table S3) of the starting material was detected by ^1H NMR in D2O or D2O/CD3OD mixtures after 72 h.[33] During this time, the precipitation of a brown solid was observed, which in one case (from a [2C]CF3SO3 solution) was separated and identified as γ‐Fe2O3 by Raman analysis. In addition, headspace GC analyses performed on 5 % MeOH aqueous solutions of the compounds maintained at 37 °C allowed the identification and quantitation of the carbon monoxide released over a 48 h period (Table S4). These facts indicate that the thermal degradation process in aqueous solution leads to the progressive disassembly of the organometallic scaffold.[16] The presumed, controlled release of the iron centres (converted to iron oxide, see above) and carbon monoxide are two aspects that deserve attention with reference to the biological activity: note that the decay of ferrocene drug candidates into Fe^II ions was previously associated to their cytotoxicity,[34] while the activity of various iron carbonyl complexes was correlated to CO dissociation in the physiological media.[35]
as §1, §2, §3, §4, §5, §6

The test system of data set [3] is Human colon (HCT‐15) carcinoma cell line. The data set is described as follows: MTT assay, 2D cell culture. It counts as cell-based. The settings on record: HCT‐15 cells, 72 h. On the procedure: (§7) Compounds [2B]BF4, [2C]CF3SO3, [2D]CF3SO3 and [3F]CF3SO3 were dissolved in water while the other compounds were dissolved in the minimum DMSO amount prior to cell culture testing. A calculated amount of the stock drug DMSO solution was added to the cell culture media to reach a final maximum DMSO concentration of 0.5 %, which had no effects on cell viability.
(§8) Cell cultures. Human colon (HCT‐15), pancreatic (PSN‐1) and breast (MCF‐7) carcinoma cell lines along with human melanoma cells (A375) were obtained from American Type Culture Collection (ATCC, Rockville, MD). Embryonic kidney HEK293 cells were obtained from the European Collection of Cell Cultures (ECACC, Salisbury, UK). Human ovarian 2008 cancer cells were kindly provided by Prof. G. Marverti (Dept. of Biomedical Science of Modena University, Italy). MCF‐7 ADR cells were kindly provided by Prof. N. Colabufo (Dept. Pharmacy, University of Bari, Italy). Cell lines were maintained in the logarithmic phase at 37 °C in a 5 % CO2 atmosphere using the following culture media containing 10 % fetal calf serum (Euroclone, Milan, Italy), antibiotics (50 units/mL penicillin and 50 μg/mL streptomycin) and 2 mM L‐glutamine: i) RPMI‐1640 medium (Euroclone, Milan, Italy) for PSN‐1, 2008, HCT‐15, MCF‐7 and MCF‐7 ADR cells; ii) DMEM for A375 and HEK293 cells.
(§9) MTT assay. The growth inhibitory effect towards tumour cells was evaluated by means of MTT assay as previously described.[57] Briefly, 3–8×10^3 cells/well, dependent upon the growth characteristics of the cell line, were seeded in 96‐well microplates in growth medium (100 μL). After 24 h, the medium was removed and replaced with a fresh one containing the compound to be studied at the appropriate concentration. Triplicate cultures were established for each treatment. After 24 or 72 h, each well was treated with 10 μL of a 5 mg/mL MTT saline solution, and following 5 h of incubation, 100 μL of a sodium dodecyl sulfate (SDS) solution in HCl 0.01 M were added. After an overnight incubation, cell growth inhibition was detected by measuring the absorbance of each well at 570 nm using a Bio‐Rad 680 microplate reader. Mean absorbance for each drug dose was expressed as a percentage of the control untreated well absorbance and plotted against drug concentration. IC50 values, the drug concentrations that reduce the mean absorbance at 570 nm to 50 % of those in the untreated control wells, were calculated by the four‐parameter logistic (4‐PL) model. Evaluation was based on means from at least four independent experiments.

The test system of data set [4] is Human ovarian 2008 cancer cells. Briefly: MTT assay, 2D cell culture. The format is cell-based. The following applies: 2008 cells, 72 h. As to the method:
as §7, §8, §9

In data set [5] the test system is human melanoma cells (A375). Briefly: MTT assay, 2D cell culture. The format is cell-based. The settings on record: 72 h. On the procedure: as §7, §8, §9
Data set [6] has as its system Human breast (MCF‐7) carcinoma cell line. Briefly: MTT assay, 2D cell culture. The settings on record: MCF‐7 cells, 72 h. The format is cell-based. As to the method: as §7, §8, §9
The test system of data set [7] is Human pancreatic (PSN‐1) carcinoma cell line. Briefly: MTT assay, 2D cell culture. It counts as cell-based. On the procedure: as §7, §8, §9
The test system of another data set is MCF‐7 ADR cells. The data set is described as follows: MTT assay, multidrug-resistant cancer cell model overexpressing P-gp. It counts as cell-based, human. The settings on record: for IC50: MCF‐7 ADR cells, 72 h, MTT; for RF=IC50 (resistant cells)/IC50 (wild‐type cells): MCF‐7 ADR vs MCF‐7, 72 h. As to the method: The antiproliferative activity was also investigated in a multidrug‐resistant cancer cell model overexpressing P‐gp (MCF‐7 ADR cells).
as §7, §8, §9

[8] abbreviates: PSN-1 cells, 24 h, read-out: IC50 (µM) ± SD.
[9] abbreviates: PSN‐1 cells, 72 h, read-out: IC50 (μM)±SD.

Like-named read-outs stand apart in the source and are kept apart here.

In the case of “[Fe2Cp2(CO)2(μ‐CO){μ‐CNEt(2‐naphthyl)}]BF4 [[4G]BF4]”, the “% starting material (24 h)” value in data set [1] was 85%. The “% starting material (72 h)” value in data set [2] (D2O/CD3OD 5:4 v/v) amounted to 51%; in data set [2] (DMSO-d6/D2O 5:3 v/v) it was 42%. Besides, the half-maximal inhibitory concentration (IC50) in data set [3] turned out to be 22.9 ± 5.8 µM; in data set [4], 38.8 ± 6.9 µM; in data set [5], 26.2 ± 5.6 µM; in data set [6], 21.4 ± 3.6 µM; in data set [7] (setting [8]) it was 69.5 ± 2.1 µM; in data set [7] (setting [9]), 25.6 ± 4.5 µM. Also, in the data set with MCF‐7 ADR cells, the IC50 was 26.9 ± 5.1 µM. In addition, the “RF=IC50 (resistant cells)/IC50 (wild‐type cells)” value (“RF=IC50 (resistant cells)/IC50” below) in the data set on MCF‐7 ADR cells was found to be 1.3.
Turning to “[Fe2Cp2(CO)2(μ‐CO){μ‐CNMe(1H‐indol‐6‐yl)}]CF3SO3 [[2A]CF3SO3]”, in data set [1], the “% starting material (24 h)” value came out at 86%. Moreover, the “% starting material (72 h)” value in data set [2] (D2O/CD3OD 2:1 v/v) worked out at 55%; in data set [2] (DMSO-d6/D2O 1:1 v/v), 89%. Besides, the IC50 in data set [3] was found to be 69.5 ± 6.7 µM; in data set [4], 55.5 ± 4.8 µM; in data set [5], 50.8 ± 6.1 µM; in data set [6], 63.2 ± 5.5 µM; in data set [7] (setting [8]), 144 ± 16 µM; in data set [7] (setting [9]), 54.3 ± 6.2 µM. In the data set on MCF‐7 ADR cells, this substance registered a concentration for half-maximal inhibition (IC50) of 84.5 ± 8.5 µM. Further, the “RF=IC50 (resistant cells)/IC50” value with MCF‐7 ADR cells amounted to 1.3.
Regarding “[Fe2Cp2(CO)2(μ‐CO){μ‐CNMe(CH2CHCH2)}]X [[3F]CF3SO3]”, the IC50 in data set [3] is over 100 µM; in data set [4], over 100 µM; in data set [5], over 100 µM; in data set [6] it was over 100 µM; in data set [7] (setting [8]) it was over 200 µM; in data set [7] (setting [9]) it was over 100 µM. This substance registered an IC50 in the data set on MCF‐7 ADR cells of over 100 µM.
For “[Fe2Cp2(CO)2(μ‐CO){μ‐CNMe(4‐C6H4OMe)}]CF3SO3 [[2D]CF3SO3]”, the “% starting material (24 h)” value in data set [1] is recorded as 77%. The “% starting material (72 h)” value in data set [2] (D2O) was determined as 86%. For the same substance, the half-maximal inhibitory concentration (IC50) in data set [3] was found to be 15.6 ± 3.5 µM; in data set [4], 21.3 ± 3.1 µM; in data set [5] it was 15.5 ± 2.6 µM; in data set [6], 14.3 ± 2.6 µM; in data set [7] (setting [8]), 35 ± 2 µM; in data set [7] (setting [9]), 16.2 ± 2.9 µM. This substance yielded an IC50 in the data set on MCF‐7 ADR cells of 22.6 ± 4.2 µM. In the data set with MCF‐7 ADR cells, the “RF=IC50 (resistant cells)/IC50” value was 1.6.
Consider “[Fe2Cp2(CO)2(μ‐CO){μ‐CNMe(CH2PO3Et2)}]X [[2B]BF4]”, for which, in data set [1], the “% starting material (24 h)” value is 88%. In addition, the “% starting material (72 h)” value is listed as 85% in data set [2] (D2O) and 81% in data set [2] (D2O/CD3OD 2:1 v/v). Further, the concentration for half-maximal inhibition (IC50) in data set [3] was over 100 µM; in data set [4], over 100 µM; in data set [5], over 100 µM; in data set [6], over 100 µM; in data set [7] (setting [8]) it was over 200 µM; in data set [7] (setting [9]), over 100 µM. The IC50 in the data set on MCF‐7 ADR cells was over 100 µM.
Regarding “[Fe2Cp2(CO)2(μ‐CO){μ‐CNMe(C6H11)}]X [[2C]CF3SO3]”, the “% starting material (24 h)” value in data set [1] is 85%. For the same substance, the “% starting material (72 h)” value in data set [2] (D2O) is reported as 75%. In addition, the IC50 in data set [3] was 9.2 ± 1.8 µM; in data set [4], 28.4 ± 5.4 µM; in data set [5], 16.8 ± 2.1 µM; in data set [6], 17.3 ± 3.3 µM; in data set [7] (setting [8]), 94.2 ± 3.8 µM; in data set [7] (setting [9]) it was 15.3 ± 2.7 µM. Also, the IC50 in the data set on MCF‐7 ADR cells stood at 23.3 ± 4.1 µM. Also, the “RF=IC50 (resistant cells)/IC50” value in the data set on MCF‐7 ADR cells worked out at 1.3.
Consider “[Fe2Cp2(CO)2(μ‐CO){μ‐CNBn2}]X [[5H]CF3SO3]”, for which the “% starting material (24 h)” value in data set [1] is listed as 75%. The “% starting material (72 h)” value is listed as “ca. 50%” in data set [2] (D2O), 65% in data set [2] (D2O/CD3OD 5:4 v/v) and 89% in data set [2] (DMSO-d6/D2O 1:1 v/v). Moreover, the IC50 was 32.5 ± 4.8 µM in data set [3]; 37.4 ± 5.2 µM in data set [4]; 30.8 ± 5.1 µM in data set [5]; 36.2 ± 6.1 µM in data set [6]; 112 ± 2.4 µM in data set [7] (setting [8]); 33.7 ± 4.2 µM in data set [7] (setting [9]). Further, in the data set on MCF‐7 ADR cells, the IC50 amounted to 44.7 ± 6.1 µM. Further, the “RF=IC50 (resistant cells)/IC50” value in the data set on MCF‐7 ADR cells is on record as 1.2.

The values are drawn from article PMC8362065, “Easily Available, Amphiphilic Diiron Cyclopentadienyl Complexes Exhibit in Vitro Anticancer Activity in 2D and 3D Human Cancer Cells through Redox Modulation Triggered by CO Release” (Chemistry (Weinheim an Der Bergstrasse, Germany), 2021).
